Measured values from PubChem BioAssay (NCI).
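Results reflect a 48-hour exposure of cells in 96-well plates to compound at five concentrations. GI50 marks 50% less growth. Definition used: TGI = concentration required for complete inhibition of growth.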

Legend:
Test in all cases: DTP human tumour cell line panel, 48 h
[1] = test system: SF-268 CNS
[2] = test system: T-47D breast
[3] = test system: HOP-62 NSCLC
[4] = test system: MDA-MB-231 breast
[5] = test system: RXF 393 renal
[6] = test system: ACHN renal
[7] = test system: MCF7 breast
[8] = test system: A549 NSCLC
[9] = test system: KM12 colon
[10] = test system: HCT-116 colon
[11] = test system: CAKI-1 renal
[12] = test system: SNB-19 CNS
[13] = test system: OVCAR-4 ovarian
[14] = test system: NCI-H226 lung
[15] = test system: HCT-15 colon
[16] = test system: NCI-H522 lung
[17] = test system: SN12C renal
[18] = test system: UACC-257 melanoma
[19] = test system: HS 578T breast
[20] = test system: UO-31 renal
[21] = test system: RPMI-8226 leukemia
[22] = test system: SK-OV-3 ovarian
[23] = test system: OVCAR-3 ovarian
[24] = test system: BT-549 breast
[25] = test system: OVCAR-8 ovarian
[26] = test system: HL-60(TB) leukemia
[27] = test system: U251 CNS
[28] = test system: SNB-75 CNS
[29] = test system: SF-295 CNS
[30] = test system: 786-0 renal
[31] = test system: PC-3 prostate
[32] = test system: MDA-MB-435
[33] = test system: MALME-3M melanoma
[34] = test system: A498 renal
[35] = test system: COLO 205 colon
[36] = test system: OVCAR-5 ovarian
[37] = test system: SF-539 CNS
[38] = test system: TK-10 renal
[39] = test system: M14 melanoma
[40] = test system: NCI-H23 lung
[41] = test system: HOP-92 NSCLC
[42] = test system: CCRF-CEM leukemia
[43] = test system: IGROV1 ovarian
[44] = test system: SK-MEL-2 melanoma
[45] = test system: SK-MEL-28 melanoma
[46] = test system: EKVX NSCLC
[47] = test system: HT29 colon
[48] = test system: SW-620 colon
[49] = test system: HCC-2998 colon
[50] = test system: MOLT-4 leukemia
[51] = test system: SK-MEL-5 melanoma
[52] = test system: DU-145 prostate
[53] = test system: UACC-62 melanoma
[54] = test system: NCI/ADR-RES ovarian
[55] = test system: NCI-H460 lung
[56] = test system: K-562 leukemia

Cn1cc(-c2cc3ncnc(Nc4ccc(NC(=O)Nc5cc(C(C)(C)C)on5)cc4)c3s2)cn1
GI50 [1]: 1.36 µM
TGI [1]: > 37.2 µM
GI50 [2]: 0.513 µM
TGI [2]: > 29 µM
GI50 [3]: 1.87 µM
TGI [3]: 35.9 µM
GI50 [4]: 1.74 µM
TGI [4]: 31.7 µM
GI50 [5]: 0.307 µM
TGI [5]: 1.55 µM
GI50 [6]: 0.348 µM
TGI [6]: 13.2 µM
GI50 [7]: 0.933 µM
TGI [7]: 4.86 µM
GI50 [8]: 0.764 µM
TGI [8]: 39.3 µM
GI50 [9]: 0.0351 µM
TGI [9]: 18.2 µM
GI50 [10]: 0.377 µM
TGI [10]: 6.16 µM
GI50 [11]: 0.17 µM
TGI [11]: 13.9 µM
GI50 [12]: 3.74 µM
TGI [12]: > 38.3 µM
GI50 [13]: 0.619 µM
TGI [13]: > 56.7 µM
GI50 [14]: 0.517 µM
TGI [14]: 19.7 µM
GI50 [15]: 0.49 µM
TGI [15]: > 28.5 µM
GI50 [16]: 0.916 µM
TGI [16]: 5.15 µM
GI50 [17]: 0.379 µM
TGI [17]: 28.9 µM
GI50 [18]: 2.12 µM
TGI [18]: 14.7 µM
GI50 [19]: 0.4 µM
TGI [19]: 6.55 µM
GI50 [20]: 0.32 µM
TGI [20]: 9.34 µM
GI50 [21]: 0.441 µM
TGI [21]: 2.47 µM
GI50 [22]: 0.314 µM
TGI [22]: 16.3 µM
GI50 [23]: 1.97 µM
TGI [23]: 8.44 µM
GI50 [24]: 0.835 µM
TGI [24]: 4.37 µM
GI50 [25]: 0.864 µM
TGI [25]: > 100 µM
GI50 [26]: 1.1 µM
TGI [26]: 3.51 µM
GI50 [27]: 1.45 µM
TGI [27]: > 40.3 µM
GI50 [28]: 0.182 µM
TGI [28]: 4.43 µM
GI50 [29]: 0.552 µM
TGI [29]: 2.22 µM
GI50 [30]: 0.72 µM
TGI [30]: 8.39 µM
GI50 [31]: 0.791 µM
TGI [31]: 13.7 µM
GI50 [32]: 0.6 µM
TGI [32]: 18.1 µM
GI50 [33]: 0.348 µM
TGI [33]: 3.76 µM
GI50 [34]: 0.39 µM
TGI [34]: 5.17 µM
GI50 [35]: 0.436 µM
TGI [35]: 6.42 µM
GI50 [36]: 3.49 µM
TGI [36]: 21 µM
GI50 [37]: 0.216 µM
TGI [37]: 1.87 µM
GI50 [38]: 2.98 µM
TGI [38]: 17.7 µM
GI50 [39]: 0.244 µM
TGI [39]: 4.27 µM
GI50 [40]: 0.764 µM
TGI [40]: 6.54 µM
GI50 [41]: 1.56 µM
TGI [41]: 14.9 µM
GI50 [42]: 0.366 µM
TGI [42]: 2.88 µM
GI50 [43]: 0.363 µM
TGI [43]: 21.3 µM
GI50 [44]: 0.39 µM
TGI [44]: 2.47 µM
GI50 [45]: 1.06 µM
TGI [45]: 10.5 µM
GI50 [46]: 1.75 µM
TGI [46]: 15 µM
GI50 [47]: 0.631 µM
TGI [47]: 3.57 µM
GI50 [48]: 0.994 µM
TGI [48]: > 35.6 µM
GI50 [49]: 2.5 µM
TGI [49]: 11 µM
GI50 [50]: 0.397 µM
GI50 [51]: 0.904 µM
TGI [51]: 2.86 µM
GI50 [52]: 0.686 µM
TGI [52]: > 34.9 µM
GI50 [53]: 0.498 µM
TGI [53]: 8.81 µM
GI50 [54]: 2.95 µM
TGI [54]: > 44.5 µM
GI50 [55]: 0.296 µM
TGI [55]: 23.8 µM
GI50 [56]: 0.295 µM
TGI [56]: > 100 µM
